Data from PubChem BioAssay (NCI).
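Protocol summary: plate cells (96-well), add compound at 5 concentrations, incubate 48 h, interpolate endpoints linearly. Here, GI50 denotes the concentration required for 50% inhibition of growth. TGI denotes the concentration required for complete inhibition of growth.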

What was measured:
Test in all cases: NCI-60 cell line screen, 48 h
UACC-257 melanoma = system: UACC-257 melanoma
UACC-62 melanoma = system: UACC-62 melanoma
TK-10 renal = system: TK-10 renal
M14 melanoma = system: M14 melanoma
HOP-62 NSCLC = system: HOP-62 NSCLC
OVCAR-4 ovarian = system: OVCAR-4 ovarian
SF-539 CNS = system: SF-539 CNS
CAKI-1 renal = system: CAKI-1 renal
SNB-19 CNS = system: SNB-19 CNS
SR leukemia = system: SR leukemia
MDA-MB-435 = system: MDA-MB-435
SF-268 CNS = system: SF-268 CNS
MOLT-4 leukemia = system: MOLT-4 leukemia
NCI-H226 lung = system: NCI-H226 lung
CCRF-CEM leukemia = system: CCRF-CEM leukemia
HCC-2998 colon = system: HCC-2998 colon
EKVX NSCLC = system: EKVX NSCLC
NCI-H460 lung = system: NCI-H460 lung
HL-60(TB) leukemia = system: HL-60(TB) leukemia
LOX IMVI melanoma = system: LOX IMVI melanoma
SK-MEL-2 melanoma = system: SK-MEL-2 melanoma
T-47D breast = system: T-47D breast
BT-549 breast = system: BT-549 breast
MDA-MB-231 breast = system: MDA-MB-231 breast
PC-3 prostate = system: PC-3 prostate
A549 NSCLC = system: A549 NSCLC
U251 CNS = system: U251 CNS
SK-MEL-28 melanoma = system: SK-MEL-28 melanoma
RPMI-8226 leukemia = system: RPMI-8226 leukemia
MCF7 breast = system: MCF7 breast
SK-MEL-5 melanoma = system: SK-MEL-5 melanoma

## COc1ccc2c(c1)/C(=C/c1cc(OC)c(OC)c(OC)c1)C(=O)N2
UACC-257 melanoma
  TGI: > 100000 nM
UACC-62 melanoma
  GI50: 370 nM
  TGI: > 100000 nM
TK-10 renal
  GI50: 1190 nM
  TGI: > 70600 nM
M14 melanoma
  GI50: 351 nM
  TGI: 11700 nM
HOP-62 NSCLC
  GI50: 137 nM
  TGI: > 47500 nM
OVCAR-4 ovarian
  TGI: > 100000 nM
SF-539 CNS
  GI50: 740 nM
  TGI: 19500 nM
CAKI-1 renal
  GI50: 118 nM
SNB-19 CNS
  GI50: 433 nM
  TGI: > 100000 nM
SR leukemia
  TGI: 590 nM
MDA-MB-435
  GI50: 31.8 nM
  TGI: 253 nM
SF-268 CNS
  GI50: 419 nM
  TGI: > 100000 nM
MOLT-4 leukemia
  GI50: 216 nM
  TGI: > 100000 nM
NCI-H226 lung
  GI50: > 30900 nM
  TGI: > 100000 nM
CCRF-CEM leukemia
  GI50: 253 nM
HCC-2998 colon
  GI50: 586 nM
  TGI: 16000 nM
EKVX NSCLC
  GI50: 11600 nM
  TGI: > 100000 nM
NCI-H460 lung
  GI50: 269 nM
  TGI: > 100000 nM
HL-60(TB) leukemia
  GI50: 90.8 nM
  TGI: > 100000 nM
LOX IMVI melanoma
  GI50: 443 nM
  TGI: > 100000 nM
SK-MEL-2 melanoma
  GI50: 1180 nM
T-47D breast
  GI50: 385 nM
BT-549 breast
  GI50: 1370 nM
  TGI: > 100000 nM
MDA-MB-231 breast
  GI50: 1510 nM
  TGI: 66800 nM
PC-3 prostate
  GI50: 364 nM
  TGI: > 100000 nM
A549 NSCLC
  GI50: 603 nM
  TGI: > 100000 nM
U251 CNS
  GI50: 407 nM
  TGI: 16700 nM
SK-MEL-28 melanoma
  GI50: > 100000 nM
  TGI: > 100000 nM
RPMI-8226 leukemia
  GI50: 275 nM
  TGI: 1180 nM
MCF7 breast
  GI50: 350 nM
  TGI: > 100000 nM
SK-MEL-5 melanoma
  GI50: 155 nM
